According to the NIST ThermoML archive (doi:10.1021/je400529k):

Assays:
[1] = refractive index (Na D-line) (dimensionless); xn = mol fraction of the nth substance listed; conditions: 101 kPa, Liquid, Standard Abbe refractometry
[2] = xn = mol fraction of the nth substance listed; conditions: 101 kPa, Liquid; for viscosity: Capillary tube (Ostwald / Ubbelohde) method; for mass density: Vibrating tube method

CCC1CCCCC1 [ethylcyclohexane] + C1C[C@@H]2[C@H]3CC[C@H](C3)[C@@H]2C1
Conditions | mass density, [2] [kg/m3] | refractive index, [1] | viscosity, [2] [mPa·s]
293.15 K, x2 = 0 | 788.02 | 1.4319 | 0.845
293.15 K, x2 = 0.0997 | 803.52 | 1.4378 | 0.941
293.15 K, x2 = 0.2006 | 818.96 | 1.4437 | 1.052
293.15 K, x2 = 0.3001 | 834.08 | 1.4494 | 1.189
293.15 K, x2 = 0.4003 | 849.15 | 1.4551 | 1.344
293.15 K, x2 = 0.5001 | 863.99 | 1.4605 | 1.514
293.15 K, x2 = 0.6011 | 878.81 | 1.4667 | 1.726
293.15 K, x2 = 0.7 | 893.21 | 1.4717 | 1.965
293.15 K, x2 = 0.8001 | 907.54 | 1.4769 | 2.251
293.15 K, x2 = 0.8996 | 921.66 | 1.4824 | 2.593
298.15 K, x2 = 0 | 784.01 | – | 0.791
298.15 K, x2 = 0.0997 | 799.47 | – | 0.878
298.15 K, x2 = 0.2006 | 814.95 | – | 0.979
298.15 K, x2 = 0.3001 | 830.07 | – | 1.104
298.15 K, x2 = 0.4003 | 845.18 | – | 1.243
298.15 K, x2 = 0.5001 | 860.01 | – | 1.396
298.15 K, x2 = 0.6011 | 874.85 | – | 1.586
298.15 K, x2 = 0.7 | 889.26 | – | 1.8
298.15 K, x2 = 0.8001 | 903.61 | – | 2.055
298.15 K, x2 = 0.8996 | 917.75 | – | 2.358
303.15 K, x2 = 0 | 779.98 | 1.4276 | 0.743
303.15 K, x2 = 0.0997 | 795.44 | 1.4334 | 0.822
303.15 K, x2 = 0.2006 | 810.94 | 1.4389 | 0.914
303.15 K, x2 = 0.3001 | 826.06 | 1.4446 | 1.028
303.15 K, x2 = 0.4003 | 841.18 | 1.4506 | 1.155
303.15 K, x2 = 0.5001 | 856.03 | 1.4559 | 1.293
303.15 K, x2 = 0.6011 | 870.9 | 1.4617 | 1.464
303.15 K, x2 = 0.7 | 885.3 | 1.4674 | 1.656
303.15 K, x2 = 0.8001 | 899.67 | 1.4724 | 1.884
303.15 K, x2 = 0.8996 | 913.82 | 1.4776 | 2.155
308.15 K, x2 = 0 | 775.93 | – | 0.7
308.15 K, x2 = 0.0997 | 791.4 | – | 0.772
308.15 K, x2 = 0.2006 | 806.91 | – | 0.856
308.15 K, x2 = 0.3001 | 822.04 | – | 0.96
308.15 K, x2 = 0.4003 | 837.18 | – | 1.076
308.15 K, x2 = 0.5001 | 852.03 | – | 1.202
308.15 K, x2 = 0.6011 | 866.92 | – | 1.356
308.15 K, x2 = 0.7 | 881.34 | – | 1.53
308.15 K, x2 = 0.8001 | 895.72 | – | 1.735
308.15 K, x2 = 0.8996 | 909.89 | – | 1.976
313.15 K, x2 = 0 | 771.86 | 1.4225 | 0.661
313.15 K, x2 = 0.0997 | 787.34 | 1.4286 | 0.727
313.15 K, x2 = 0.2006 | 802.87 | 1.4343 | 0.804
313.15 K, x2 = 0.3001 | 818 | 1.4401 | 0.9
313.15 K, x2 = 0.4003 | 833.14 | 1.4458 | 1.005
313.15 K, x2 = 0.5001 | 848.02 | 1.4514 | 1.12
313.15 K, x2 = 0.6011 | 862.92 | 1.4572 | 1.261
313.15 K, x2 = 0.7 | 877.36 | 1.4625 | 1.417
313.15 K, x2 = 0.8001 | 891.76 | 1.4679 | 1.602
313.15 K, x2 = 0.8996 | 905.95 | 1.4732 | 1.82
318.15 K, x2 = 0 | 767.78 | – | 0.626
318.15 K, x2 = 0.0997 | 783.25 | – | 0.687
318.15 K, x2 = 0.2006 | 798.78 | – | 0.758
318.15 K, x2 = 0.3001 | 813.96 | – | 0.845
318.15 K, x2 = 0.4003 | 829.08 | – | 0.942
318.15 K, x2 = 0.5001 | 843.99 | – | 1.047
318.15 K, x2 = 0.6011 | 858.88 | – | 1.175
318.15 K, x2 = 0.7 | 873.35 | – | 1.317
318.15 K, x2 = 0.8001 | 887.8 | – | 1.485
318.15 K, x2 = 0.8996 | 901.99 | – | 1.682

CC1CCC(C)C(C)C1 (stereo not given) [1,2,4-trimethylcyclohexane] + C1C[C@@H]2[C@H]3CC[C@H](C3)[C@@H]2C1
Conditions | mass density, [2] [kg/m3] | refractive index, [1] | viscosity, [2] [mPa·s]
293.15 K, x2 = 0 | 790.8 | 1.4331 | 0.886
293.15 K, x2 = 0.1 | 804.62 | 1.4381 | 0.986
293.15 K, x2 = 0.1996 | 818.49 | 1.4436 | 1.101
293.15 K, x2 = 0.3002 | 832.73 | 1.449 | 1.23
293.15 K, x2 = 0.4009 | 847.13 | 1.4545 | 1.381
293.15 K, x2 = 0.5001 | 861.44 | 1.4597 | 1.562
293.15 K, x2 = 0.5992 | 875.89 | 1.4651 | 1.759
293.15 K, x2 = 0.6998 | 890.7 | 1.4709 | 2.008
293.15 K, x2 = 0.7997 | 905.51 | 1.476 | 2.277
293.15 K, x2 = 0.9001 | 920.61 | 1.4818 | 2.609
298.15 K, x2 = 0 | 786.92 | – | 0.827
298.15 K, x2 = 0.1 | 800.71 | – | 0.917
298.15 K, x2 = 0.1996 | 814.61 | – | 1.021
298.15 K, x2 = 0.3002 | 828.84 | – | 1.137
298.15 K, x2 = 0.4009 | 843.21 | – | 1.273
298.15 K, x2 = 0.5001 | 857.51 | – | 1.436
298.15 K, x2 = 0.5992 | 871.98 | – | 1.613
298.15 K, x2 = 0.6998 | 886.77 | – | 1.837
298.15 K, x2 = 0.7997 | 901.61 | – | 2.076
298.15 K, x2 = 0.9001 | 916.71 | – | 2.371
303.15 K, x2 = 0 | 783.03 | 1.4285 | 0.774
303.15 K, x2 = 0.1 | 796.8 | 1.4339 | 0.856
303.15 K, x2 = 0.1996 | 810.7 | 1.4392 | 0.95
303.15 K, x2 = 0.3002 | 824.93 | 1.4442 | 1.056
303.15 K, x2 = 0.4009 | 839.3 | 1.4499 | 1.179
303.15 K, x2 = 0.5001 | 853.59 | 1.4554 | 1.326
303.15 K, x2 = 0.5992 | 868.06 | 1.4608 | 1.486
303.15 K, x2 = 0.6998 | 882.85 | 1.4661 | 1.687
303.15 K, x2 = 0.7997 | 897.7 | 1.4718 | 1.901
303.15 K, x2 = 0.9001 | 912.81 | 1.4775 | 2.165
308.15 K, x2 = 0 | 779.13 | – | 0.727
308.15 K, x2 = 0.1 | 792.9 | – | 0.802
308.15 K, x2 = 0.1996 | 806.79 | – | 0.888
308.15 K, x2 = 0.3002 | 821.01 | – | 0.984
308.15 K, x2 = 0.4009 | 835.38 | – | 1.096
308.15 K, x2 = 0.5001 | 849.67 | – | 1.23
308.15 K, x2 = 0.5992 | 864.13 | – | 1.374
308.15 K, x2 = 0.6998 | 878.93 | – | 1.556
308.15 K, x2 = 0.7997 | 893.78 | – | 1.749
308.15 K, x2 = 0.9001 | 908.89 | – | 1.985
313.15 K, x2 = 0 | 775.23 | 1.424 | 0.686
313.15 K, x2 = 0.1 | 788.98 | 1.429 | 0.753
313.15 K, x2 = 0.1996 | 802.87 | 1.4346 | 0.832
313.15 K, x2 = 0.3002 | 817.09 | 1.44 | 0.92
313.15 K, x2 = 0.4009 | 831.45 | 1.4452 | 1.022
313.15 K, x2 = 0.5001 | 845.74 | 1.4508 | 1.144
313.15 K, x2 = 0.5992 | 860.2 | 1.4561 | 1.275
313.15 K, x2 = 0.6998 | 875.01 | 1.4618 | 1.44
313.15 K, x2 = 0.7997 | 889.85 | 1.4676 | 1.615
313.15 K, x2 = 0.9001 | 904.97 | 1.4731 | 1.828
318.15 K, x2 = 0 | 771.32 | – | 0.648
318.15 K, x2 = 0.1 | 785.06 | – | 0.71
318.15 K, x2 = 0.1996 | 798.94 | – | 0.782
318.15 K, x2 = 0.3002 | 813.16 | – | 0.862
318.15 K, x2 = 0.4009 | 827.52 | – | 0.956
318.15 K, x2 = 0.5001 | 841.8 | – | 1.068
318.15 K, x2 = 0.5992 | 856.27 | – | 1.187
318.15 K, x2 = 0.6998 | 871.07 | – | 1.337
318.15 K, x2 = 0.7997 | 885.92 | – | 1.496
318.15 K, x2 = 0.9001 | 901.04 | – | 1.688
